pIC50: −log10 of the molar value.
Tests used:
[1] = Stability in mouse liver microsomes at 1 uM incubated for 15 mins; format: ADME, Microsome; conditions: read-out: Stability
[2] = target: CYP2C9 (Homo sapiens, UniProt P11712); experiment: Inhibition of CYP2C9 at 10 uM; format: ADME
[3] = target: CYP2C19 (Homo sapiens, UniProt P33261); experiment: Inhibition of CYP2C19 at 10 uM; format: ADME
[4] = target: CYP3A4 (Homo sapiens, UniProt P08684); experiment: Inhibition of CYP3A4 at 10 uM; format: ADME
[5] = target: Serine/threonine-protein kinase mTOR (Homo sapiens, UniProt P42345); experiment: Inhibition of mTOR
[6] = target: RAC-alpha serine/threonine-protein kinase (Homo sapiens) (UniProt P31749); experiment: Inhibition of AKT1 at 1 uM
RAC-alpha serine/threonine-protein kinase (Homo sapiens), sequence (P31749 whole entry): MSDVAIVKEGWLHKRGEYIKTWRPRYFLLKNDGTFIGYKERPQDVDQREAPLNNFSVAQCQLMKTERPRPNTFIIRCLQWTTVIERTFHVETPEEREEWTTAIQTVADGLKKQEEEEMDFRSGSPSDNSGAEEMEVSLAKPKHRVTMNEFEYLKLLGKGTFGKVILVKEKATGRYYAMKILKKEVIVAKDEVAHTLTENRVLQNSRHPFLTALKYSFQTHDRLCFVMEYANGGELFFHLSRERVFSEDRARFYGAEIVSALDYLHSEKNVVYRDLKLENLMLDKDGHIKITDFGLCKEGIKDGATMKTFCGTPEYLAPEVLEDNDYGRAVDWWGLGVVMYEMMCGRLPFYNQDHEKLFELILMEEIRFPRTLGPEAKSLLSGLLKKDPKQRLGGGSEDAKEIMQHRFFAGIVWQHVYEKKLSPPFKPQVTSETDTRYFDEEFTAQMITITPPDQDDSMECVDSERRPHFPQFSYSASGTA

[7] = target: Fibroblast growth factor receptor 1 (Homo sapiens) (UniProt P11362); experiment: Inhibition of FGFR1 at 1 uM
[8] = target: T1, Inhibitor of nuclear factor kappa-B kinase subunit beta (Homo sapiens) (UniProt O14920); experiment: Inhibition of IKKbeta at 1 uM
T1 sequence (whole entry): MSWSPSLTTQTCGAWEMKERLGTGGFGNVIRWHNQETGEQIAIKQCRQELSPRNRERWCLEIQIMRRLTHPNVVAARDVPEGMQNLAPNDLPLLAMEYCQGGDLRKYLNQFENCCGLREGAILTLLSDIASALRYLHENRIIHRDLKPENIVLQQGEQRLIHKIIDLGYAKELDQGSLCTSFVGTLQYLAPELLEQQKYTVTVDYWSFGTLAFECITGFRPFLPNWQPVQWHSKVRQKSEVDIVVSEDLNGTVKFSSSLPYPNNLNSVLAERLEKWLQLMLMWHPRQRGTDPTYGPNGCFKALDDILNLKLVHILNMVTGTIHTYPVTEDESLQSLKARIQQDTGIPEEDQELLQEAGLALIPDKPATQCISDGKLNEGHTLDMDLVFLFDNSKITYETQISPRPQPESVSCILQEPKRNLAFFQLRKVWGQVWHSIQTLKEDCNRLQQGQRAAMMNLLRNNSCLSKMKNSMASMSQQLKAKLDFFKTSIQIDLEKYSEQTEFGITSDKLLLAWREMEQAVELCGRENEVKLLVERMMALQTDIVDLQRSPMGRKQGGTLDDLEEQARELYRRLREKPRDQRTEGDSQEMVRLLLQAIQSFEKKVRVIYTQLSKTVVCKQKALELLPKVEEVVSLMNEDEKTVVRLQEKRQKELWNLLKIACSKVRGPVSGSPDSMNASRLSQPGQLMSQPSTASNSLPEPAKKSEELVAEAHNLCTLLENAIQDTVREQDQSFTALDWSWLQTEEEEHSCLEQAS

[9] = target: Tyrosine-protein kinase JAK2 (Homo sapiens) (UniProt O60674); experiment: Inhibition of JAK2 at 1 uM
Tyrosine-protein kinase JAK2 (Homo sapiens), sequence (O60674 whole entry): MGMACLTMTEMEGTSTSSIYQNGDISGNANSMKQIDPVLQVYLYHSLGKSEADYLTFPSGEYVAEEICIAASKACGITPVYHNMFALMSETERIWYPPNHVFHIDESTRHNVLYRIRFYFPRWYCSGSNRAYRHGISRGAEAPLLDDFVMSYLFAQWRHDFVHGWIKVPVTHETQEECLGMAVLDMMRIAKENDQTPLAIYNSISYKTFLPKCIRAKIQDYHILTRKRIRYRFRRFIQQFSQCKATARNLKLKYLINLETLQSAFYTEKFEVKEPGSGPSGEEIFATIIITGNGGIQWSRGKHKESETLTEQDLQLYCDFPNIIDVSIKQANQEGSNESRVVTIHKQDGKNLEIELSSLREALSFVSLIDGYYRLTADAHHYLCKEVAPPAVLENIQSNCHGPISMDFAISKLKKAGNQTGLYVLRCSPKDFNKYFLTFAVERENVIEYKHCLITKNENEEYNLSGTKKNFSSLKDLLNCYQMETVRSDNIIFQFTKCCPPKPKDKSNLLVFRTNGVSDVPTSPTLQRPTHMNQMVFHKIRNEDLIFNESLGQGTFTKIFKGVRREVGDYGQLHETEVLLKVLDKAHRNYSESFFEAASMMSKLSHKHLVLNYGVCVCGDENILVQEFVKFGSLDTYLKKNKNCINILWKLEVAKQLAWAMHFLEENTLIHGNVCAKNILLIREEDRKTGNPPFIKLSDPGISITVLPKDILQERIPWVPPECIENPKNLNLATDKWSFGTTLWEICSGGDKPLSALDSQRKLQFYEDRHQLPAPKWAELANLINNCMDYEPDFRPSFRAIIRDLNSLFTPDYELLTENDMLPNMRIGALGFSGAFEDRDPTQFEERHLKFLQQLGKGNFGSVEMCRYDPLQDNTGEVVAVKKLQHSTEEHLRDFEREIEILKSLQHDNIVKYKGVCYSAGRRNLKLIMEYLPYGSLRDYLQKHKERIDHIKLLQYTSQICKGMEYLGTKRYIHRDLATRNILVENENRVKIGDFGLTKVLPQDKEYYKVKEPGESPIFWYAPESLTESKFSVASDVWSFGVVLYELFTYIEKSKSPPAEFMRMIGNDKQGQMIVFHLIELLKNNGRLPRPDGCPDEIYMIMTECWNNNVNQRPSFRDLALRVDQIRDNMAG

[10] = target: Mitogen-activated protein kinase 8 (Homo sapiens) (UniProt P45983); experiment: Inhibition of JNK1 at 1 uM
Mitogen-activated protein kinase 8 (Homo sapiens), sequence (P45983 whole entry): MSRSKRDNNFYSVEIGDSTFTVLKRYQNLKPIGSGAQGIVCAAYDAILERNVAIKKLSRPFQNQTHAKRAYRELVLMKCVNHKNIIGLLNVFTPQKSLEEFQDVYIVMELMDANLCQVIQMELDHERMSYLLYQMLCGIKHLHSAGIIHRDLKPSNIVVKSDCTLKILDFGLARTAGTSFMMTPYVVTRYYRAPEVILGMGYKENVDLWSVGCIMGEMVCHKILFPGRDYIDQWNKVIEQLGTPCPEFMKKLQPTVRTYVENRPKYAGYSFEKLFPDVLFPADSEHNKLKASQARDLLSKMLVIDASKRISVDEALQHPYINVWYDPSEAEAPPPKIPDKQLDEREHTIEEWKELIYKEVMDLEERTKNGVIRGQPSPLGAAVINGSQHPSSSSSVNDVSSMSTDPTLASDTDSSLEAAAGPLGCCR

[11] = target: Serine/threonine-protein kinase PAK 1 (Homo sapiens) (UniProt Q13153); experiment: Inhibition of PAK1 at 1 uM
Serine/threonine-protein kinase PAK 1 (Homo sapiens), sequence (Q13153 whole entry): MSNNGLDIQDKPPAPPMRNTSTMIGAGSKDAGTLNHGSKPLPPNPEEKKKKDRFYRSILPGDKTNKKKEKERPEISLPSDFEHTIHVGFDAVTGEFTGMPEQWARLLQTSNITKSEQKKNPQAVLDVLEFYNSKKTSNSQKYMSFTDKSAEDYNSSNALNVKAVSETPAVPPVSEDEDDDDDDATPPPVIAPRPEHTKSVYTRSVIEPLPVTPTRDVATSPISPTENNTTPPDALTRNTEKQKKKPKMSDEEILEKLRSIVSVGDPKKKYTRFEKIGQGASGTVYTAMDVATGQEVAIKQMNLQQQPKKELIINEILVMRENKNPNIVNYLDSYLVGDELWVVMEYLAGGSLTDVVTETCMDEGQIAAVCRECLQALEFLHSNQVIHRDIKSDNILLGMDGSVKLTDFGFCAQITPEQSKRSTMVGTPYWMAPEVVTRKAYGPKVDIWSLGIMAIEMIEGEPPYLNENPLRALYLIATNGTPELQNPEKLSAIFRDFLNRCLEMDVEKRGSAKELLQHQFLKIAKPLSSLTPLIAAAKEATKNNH

[12] = Inhibition of PDGFR at 1 uM
[13] = target: Serine/threonine-protein kinase pim-2 (Homo sapiens) (UniProt Q9P1W9); experiment: Inhibition of PIM2 at 1 uM
[14] = target: Ribosomal protein S6 kinase alpha-1 (Homo sapiens) (UniProt Q15418); experiment: Inhibition of RPS6KA1 at 1 uM
[15] = target: T2, Serine/threonine-protein kinase Sgk1 (Homo sapiens) (UniProt O00141); experiment: Inhibition of SGK1 at 1 uM
T2 sequence (whole entry): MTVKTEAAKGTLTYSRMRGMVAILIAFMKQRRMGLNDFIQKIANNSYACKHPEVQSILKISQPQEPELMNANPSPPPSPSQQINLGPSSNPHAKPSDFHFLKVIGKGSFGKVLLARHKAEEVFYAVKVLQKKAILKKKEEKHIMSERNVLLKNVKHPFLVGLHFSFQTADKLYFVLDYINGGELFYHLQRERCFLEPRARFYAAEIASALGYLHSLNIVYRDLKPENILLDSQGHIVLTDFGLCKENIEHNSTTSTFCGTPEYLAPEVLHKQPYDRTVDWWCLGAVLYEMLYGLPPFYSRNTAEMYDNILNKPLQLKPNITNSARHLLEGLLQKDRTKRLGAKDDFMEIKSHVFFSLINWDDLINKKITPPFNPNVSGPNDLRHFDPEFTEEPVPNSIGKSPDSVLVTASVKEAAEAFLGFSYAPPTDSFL

[16] = target: T3, NUAK family SNF1-like kinase 1 (Homo sapiens) (UniProt O60285); experiment: Inhibition of ARK5 at 5 uM
T3 sequence (whole entry): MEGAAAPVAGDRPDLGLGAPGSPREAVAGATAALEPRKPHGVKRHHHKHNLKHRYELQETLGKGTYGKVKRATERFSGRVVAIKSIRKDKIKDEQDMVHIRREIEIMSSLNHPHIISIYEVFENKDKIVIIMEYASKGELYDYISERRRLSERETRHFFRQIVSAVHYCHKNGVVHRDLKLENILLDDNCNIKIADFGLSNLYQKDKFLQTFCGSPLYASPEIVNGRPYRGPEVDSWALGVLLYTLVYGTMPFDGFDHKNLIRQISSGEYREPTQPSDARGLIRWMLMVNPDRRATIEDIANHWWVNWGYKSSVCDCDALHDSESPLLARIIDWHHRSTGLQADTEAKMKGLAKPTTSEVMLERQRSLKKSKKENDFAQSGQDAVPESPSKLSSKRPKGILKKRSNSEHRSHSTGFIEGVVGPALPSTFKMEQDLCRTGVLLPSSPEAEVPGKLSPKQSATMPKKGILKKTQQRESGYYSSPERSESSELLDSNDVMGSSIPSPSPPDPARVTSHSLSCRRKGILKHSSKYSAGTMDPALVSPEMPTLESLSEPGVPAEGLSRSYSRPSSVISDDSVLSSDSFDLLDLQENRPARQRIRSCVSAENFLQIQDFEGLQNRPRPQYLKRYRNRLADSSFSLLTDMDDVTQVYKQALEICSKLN

[17] = target: Casein kinase I isoform alpha (Homo sapiens) (UniProt P48729); experiment: Inhibition of CK1alpha1 at 5 uM
Casein kinase I isoform alpha (Homo sapiens), sequence (P48729 2-337 limits assumed): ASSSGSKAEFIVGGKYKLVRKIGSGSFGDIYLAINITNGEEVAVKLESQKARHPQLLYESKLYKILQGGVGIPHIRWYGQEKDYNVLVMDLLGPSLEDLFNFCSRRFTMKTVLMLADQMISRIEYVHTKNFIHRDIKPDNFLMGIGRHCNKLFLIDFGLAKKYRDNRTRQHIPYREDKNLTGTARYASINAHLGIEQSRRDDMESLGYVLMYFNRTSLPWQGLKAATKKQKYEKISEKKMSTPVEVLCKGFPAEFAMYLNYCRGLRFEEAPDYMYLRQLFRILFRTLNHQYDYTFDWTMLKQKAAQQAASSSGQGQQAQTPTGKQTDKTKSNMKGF

[18] = target: Dual specificity tyrosine-phosphorylation-regulated kinase 1A (Homo sapiens) (UniProt Q13627); experiment: Inhibition of DYRK1A at 5 uM
[19] = target: Focal adhesion kinase 1 (Homo sapiens) (UniProt Q05397); experiment: Inhibition of FAK at 5 uM
Focal adhesion kinase 1 (Homo sapiens), sequence (Q05397 2-1052 limits assumed): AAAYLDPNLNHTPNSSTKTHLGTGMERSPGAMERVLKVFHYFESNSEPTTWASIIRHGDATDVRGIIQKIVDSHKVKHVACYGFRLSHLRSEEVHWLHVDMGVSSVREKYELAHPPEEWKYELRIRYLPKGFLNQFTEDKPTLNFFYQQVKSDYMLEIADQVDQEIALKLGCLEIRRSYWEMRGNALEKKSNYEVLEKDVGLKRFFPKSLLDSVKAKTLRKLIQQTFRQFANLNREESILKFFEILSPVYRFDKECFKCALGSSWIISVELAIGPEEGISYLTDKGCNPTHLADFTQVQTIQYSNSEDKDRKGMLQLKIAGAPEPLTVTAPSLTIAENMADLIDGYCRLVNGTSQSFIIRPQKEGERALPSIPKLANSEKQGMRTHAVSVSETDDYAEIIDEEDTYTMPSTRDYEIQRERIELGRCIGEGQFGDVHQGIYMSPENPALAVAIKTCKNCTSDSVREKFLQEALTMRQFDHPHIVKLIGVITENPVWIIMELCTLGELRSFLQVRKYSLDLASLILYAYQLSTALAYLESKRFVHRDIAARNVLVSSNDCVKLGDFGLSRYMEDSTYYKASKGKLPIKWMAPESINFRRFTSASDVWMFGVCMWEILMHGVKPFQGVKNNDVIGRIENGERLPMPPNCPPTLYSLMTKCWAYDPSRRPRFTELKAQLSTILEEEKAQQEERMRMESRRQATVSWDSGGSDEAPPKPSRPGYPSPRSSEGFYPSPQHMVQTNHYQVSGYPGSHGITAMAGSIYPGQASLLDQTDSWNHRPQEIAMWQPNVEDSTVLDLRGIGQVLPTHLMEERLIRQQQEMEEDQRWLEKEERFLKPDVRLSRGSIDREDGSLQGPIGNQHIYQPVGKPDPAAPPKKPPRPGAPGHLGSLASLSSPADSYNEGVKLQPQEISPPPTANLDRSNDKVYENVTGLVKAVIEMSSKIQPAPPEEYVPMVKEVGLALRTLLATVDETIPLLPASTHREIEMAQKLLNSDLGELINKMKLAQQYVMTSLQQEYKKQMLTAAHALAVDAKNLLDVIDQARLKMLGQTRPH

[20] = target: Receptor-type tyrosine-protein kinase FLT3 (Homo sapiens) (UniProt P36888); experiment: Inhibition of FLT3 at 5 uM
[21] = target: Tyrosine-protein kinase JAK2 (Homo sapiens) (UniProt O60674); experiment: Inhibition of JAK2 at 5 uM
[22] = target: Mast/stem cell growth factor receptor Kit (Homo sapiens) (UniProt P10721); experiment: Inhibition of KIT at 5 uM
[23] = Inhibition of PDGFR at 5 uM
[24] = target: Serine/threonine-protein kinase pim-2 (Homo sapiens) (UniProt Q9P1W9); experiment: Inhibition of PIM2 at 5 uM

CYP2C19, sequence (P33261 whole entry): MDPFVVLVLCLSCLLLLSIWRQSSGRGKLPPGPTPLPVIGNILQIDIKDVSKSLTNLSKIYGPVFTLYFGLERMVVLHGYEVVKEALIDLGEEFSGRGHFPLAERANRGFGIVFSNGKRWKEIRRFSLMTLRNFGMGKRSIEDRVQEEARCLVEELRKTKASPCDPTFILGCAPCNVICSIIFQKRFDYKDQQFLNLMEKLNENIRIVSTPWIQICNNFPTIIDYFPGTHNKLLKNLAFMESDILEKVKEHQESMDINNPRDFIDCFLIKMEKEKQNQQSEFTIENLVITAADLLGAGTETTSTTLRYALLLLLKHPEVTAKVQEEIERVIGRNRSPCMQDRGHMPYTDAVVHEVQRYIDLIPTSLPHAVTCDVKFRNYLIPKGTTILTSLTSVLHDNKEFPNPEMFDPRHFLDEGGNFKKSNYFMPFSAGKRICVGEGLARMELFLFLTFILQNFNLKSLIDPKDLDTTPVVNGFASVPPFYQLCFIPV
CYP2C9, sequence (P11712 whole entry): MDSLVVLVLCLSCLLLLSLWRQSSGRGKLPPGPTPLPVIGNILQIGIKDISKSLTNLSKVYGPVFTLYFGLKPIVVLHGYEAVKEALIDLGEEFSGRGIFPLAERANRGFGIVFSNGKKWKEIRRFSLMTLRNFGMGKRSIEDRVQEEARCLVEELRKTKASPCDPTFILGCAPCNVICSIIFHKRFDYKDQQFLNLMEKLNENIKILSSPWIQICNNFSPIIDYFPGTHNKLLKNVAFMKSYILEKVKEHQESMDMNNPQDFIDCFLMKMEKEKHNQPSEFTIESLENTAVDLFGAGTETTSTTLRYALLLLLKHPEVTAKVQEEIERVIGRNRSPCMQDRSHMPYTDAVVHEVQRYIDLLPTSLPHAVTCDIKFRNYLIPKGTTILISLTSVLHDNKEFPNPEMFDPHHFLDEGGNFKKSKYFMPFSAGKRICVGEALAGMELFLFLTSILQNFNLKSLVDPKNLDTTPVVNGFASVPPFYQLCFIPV

Structure (SMILES) | remaining at 0.25 h, 1 µM [1] [%] | inhibition [6] [%] | inhibition [7] [%] | inhibition [8] [%] | inhibition [9] [%] | inhibition [10] [%] | inhibition [11] [%] | inhibition [12] [%] | inhibition [13] [%] | inhibition [14] [%] | inhibition [15] [%] | inhibition [16] [%] | inhibition [17] [%] | inhibition [18] [%] | inhibition [19] [%] | inhibition [20] [%] | inhibition [21] [%] | inhibition [22] [%] | inhibition [23] [%] | inhibition [24] [%] | also measured
CS(=O)(=O)N1CCN(Cc2nc3c(N4CCOCC4)nc(-c4cnc(N)nc4)cn3c2Br)CC1 | 43 | < 30 | < 30 | < 30 | < 30 | < 30 | < 30 | < 30 | < 30 | < 30 | < 30 | < 30 | < 30 | < 30 | < 30 | < 30 | < 30 | < 30 | < 30 | < 30 | inhibition at 10 µM [2]: < 30%; inhibition at 10 µM [3]: < 30%; inhibition at 10 µM [4]: < 30%; pIC50 [5]: 5.29
Cc1nc(N)ncc1-c1cn2cc(CN3CCN(S(C)(=O)=O)CC3)nc2c(N2CCOCC2)n1 | – | < 30 | < 30 | < 30 | < 30 | < 30 | < 30 | < 30 | < 30 | < 30 | < 30 | < 30 | < 30 | < 30 | < 30 | < 30 | < 30 | < 30 | < 30 | < 30 | –
CS(=O)(=O)N1CCN(Cc2cn3c(Cl)c(-c4cnc(N)nc4)nc(N4CCOCC4)c3n2)CC1 | 91 | < 30 | < 30 | < 30 | < 30 | < 30 | < 30 | < 30 | < 30 | < 30 | < 30 | < 30 | < 30 | < 30 | < 30 | < 30 | < 30 | < 30 | < 30 | < 30 | inhibition at 10 µM [2]: < 30%; inhibition at 10 µM [3]: < 30%; inhibition at 10 µM [4]: < 30%; pIC50 [5]: 5.24

Second part, led by results:

remaining at 0.25 h, 1 µM [1] [%] | inhibition [6] [%] | inhibition [7] [%] | inhibition [8] [%] | inhibition [9] [%] | inhibition [10] [%] | inhibition [11] [%] | inhibition [12] [%] | inhibition [13] [%] | inhibition [14] [%] | inhibition [15] [%] | inhibition [16] [%] | inhibition [17] [%] | inhibition [18] [%] | inhibition [19] [%] | inhibition [20] [%] | inhibition [21] [%] | inhibition [22] [%] | inhibition [23] [%] | inhibition [24] [%] | Structure (SMILES) | also measured
88 | < 30 | < 30 | < 30 | < 30 | < 30 | < 30 | < 30 | < 30 | < 30 | < 30 | < 30 | < 30 | < 30 | < 30 | < 30 | < 30 | < 30 | < 30 | < 30 | CS(=O)(=O)N1CCN(Cc2cn3cc(-c4cnc(N)nc4)nc(N4CCOCC4)c3n2)CC1 | inhibition at 10 µM [2]: < 30%; inhibition at 10 µM [3]: < 30%; inhibition at 10 µM [4]: < 30%; pIC50 [5]: 5.31
80 | < 30 | < 30 | < 30 | < 30 | < 30 | < 30 | < 30 | < 30 | < 30 | < 30 | < 30 | < 30 | < 30 | < 30 | < 30 | < 30 | < 30 | < 30 | < 30 | Cc1c(CN2CCN(S(C)(=O)=O)CC2)nc2c(N3CCOCC3)nc(-c3cnc(N)nc3)cn12 | inhibition at 10 µM [2]: < 30%; inhibition at 10 µM [3]: < 30%; inhibition at 10 µM [4]: < 30%; pIC50 [5]: 5.90

Reference: ChEMBL document CHEMBL2086238, “Identification of ETP-46321, a potent and orally bioavailable PI3K α, δ inhibitor” (Bioorg Med Chem Lett, 2012)
